Assay results reported in the supplement of paper PMC4862054.

What was measured:
Conditions in all cases: 72 h
BT-549 [1] = tested on: BT-549
Summary of the method: (§1)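 For viability and cell death testing, 384-well plates carried compound at 5 concentrations in 10-fold steps over a compound-specific 10,000-fold range, and breast cancer cell lines were seeded in 20 µl suspension. After 72 h incubation, cell death was read by CellTox Green fluorescence (485/520 nm) before viability was read by CellTiter-Glo luminescence. EC50 was fitted from the dose-response curves and censored at the top concentration. Normalisation on each plate was to 0.1 % DMSO and a positive kill control.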

CAL-120 [2] = tested on: CAL-120
Summary of the method: as §1

CAL-85-1 [3] = tested on: CAL-85-1
Summary of the method: as §1

DU-4475 [4] = tested on: DU-4475
Summary of the method: as §1

HCC1937 [5] = tested on: HCC1937
Summary of the method: as §1

HDQ-P1 [6] = tested on: HDQ-P1
Summary of the method: as §1

MCF-10A [7] = tested on: MCF-10A
Summary of the method: as §1

MDA-MB-231 [8] = tested on: MDA-MB-231
Summary of the method: as §1

MDA-MB-436 [9] = tested on: MDA-MB-436
Summary of the method: as §1

MDA-MB-453 = tested on: MDA-MB-453
Summary of the method: as §1

MFM-223 [10] = tested on: MFM-223
Summary of the method: as §1

CAL-51 [11] = tested on: CAL-51
Summary of the method: (§2)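 To measure viability, fluorescence at 560/590 nm was read after 2.5 µl CellTiter-Blue had been added for 2 h at 37 °C. Cells from breast cancer lines had been seeded in 20 µl suspension onto 384-well plates pre-loaded with compound dissolved in 5 µl medium and kept for 72 h. EC50 comes from a fitted percent-inhibition dose-response curve censored at the highest concentration, after per-plate normalisation to vehicle and a positive kill control, Z'-factor checks, and removal of rows with zero drug sensitivity score.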

HDQ-P1 [12] = tested on: HDQ-P1; remark: listed apart in the source
Summary of the method: as §2

BT-549 [13] = tested on: BT-549; remark: listed apart in the source
Summary of the method: as §2

HCC1599 [14] = tested on: HCC1599
Summary of the method: as §2

Hs578T [15] = tested on: Hs578T
Summary of the method: as §2

MFM-223 [16] = tested on: MFM-223; remark: listed apart in the source
Summary of the method: as §2

CAL-120 [17] = tested on: CAL-120; remark: listed apart in the source
Method: (§3)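 Drug sensitivity and resistance testing (DSRT) of breast cancer cell lines in 384-well plates, 5 concentrations in 10-fold dilutions over a compound-specific 10,000-fold range. After 72 h, cytotoxicity was read by CellTox Green fluorescence and viability by CellTiter-Glo luminescence (multiplexed), normalised to DMSO and benzethonium chloride controls. EC50 is the inflection point of the fitted dose-response curve (bottom asymptote free, so it can be relative for partial curves) and is censored at the highest tested concentration. Rows with DSS 0 (no meaningful response) were excluded.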

HCC1937 [18] = tested on: HCC1937; remark: listed apart in the source
Method: as §3

MDA-MB-231 [19] = tested on: MDA-MB-231; remark: listed apart in the source
Method: as §3

Hs578T [20] = tested on: Hs578T; remark: listed apart in the source
Summary of the method: as §1

DU-4475 [21] = tested on: DU-4475; remark: listed apart in the source
Summary of the method: as §2

HCC1143 [22] = tested on: HCC1143
Summary of the method: as §2

MDA-MB-436 [23] = tested on: MDA-MB-436; remark: listed apart in the source
Summary of the method: as §2

BT-549 [24] = tested on: BT-549; remark: listed apart in the source
Method: as §3

CAL-85-1 [25] = tested on: CAL-85-1; remark: listed apart in the source
Method: as §3

MFM-223 [26] = tested on: MFM-223; remark: listed apart in the source
Method: as §3

CAL-148 [27] = tested on: CAL-148
Summary of the method: as §1

HCC1143 [28] = tested on: HCC1143; remark: listed apart in the source
Summary of the method: as §1

HCC1599 [29] = tested on: HCC1599; remark: listed apart in the source
Summary of the method: as §1

SK-BR-3 [30] = tested on: SK-BR-3
Summary of the method: as §1

CAL-85-1 [31] = tested on: CAL-85-1; remark: listed apart in the source
Summary of the method: as §2

BT-474 [32] = tested on: BT-474
Summary of the method: as §2

MDA-MB-468 [33] = tested on: MDA-MB-468
Summary of the method: as §2

SK-BR-3 [34] = tested on: SK-BR-3; remark: listed apart in the source
Summary of the method: as §2

BT-474 [35] = tested on: BT-474; remark: listed apart in the source
Method: as §3

CAL-148 [36] = tested on: CAL-148; remark: listed apart in the source
Method: as §3

CAL-51 [37] = tested on: CAL-51; remark: listed apart in the source
Method: as §3

HCC1599 [38] = tested on: HCC1599; remark: listed apart in the source
Method: as §3

Hs578T [39] = tested on: Hs578T; remark: listed apart in the source
Method: as §3

MCF-10A [40] = tested on: MCF-10A; remark: listed apart in the source
Method: as §3

MDA-MB-436 [41] = tested on: MDA-MB-436; remark: listed apart in the source
Method: as §3

MDA-MB-468 [42] = tested on: MDA-MB-468; remark: listed apart in the source
Method: as §3

Cc1ccc(C(=O)Nc2ccc(CN3CCN(C)CC3)c(C(F)(F)F)c2)cc1C#Cc1cnc2cccnn12 [Ponatinib]
EC50, CellTiter-Glo (BT-549 [1]): 689 nM | EC50, CellTiter-Glo (CAL-120 [2]): 162 nM | EC50, CellTiter-Glo (CAL-85-1 [3]): > 1000 nM | EC50, CellTiter-Glo (DU-4475 [4]): 588 nM | EC50, CellTiter-Glo (HCC1937 [5]): > 1000 nM | EC50, CellTiter-Glo (HDQ-P1 [6]): 220 nM | EC50, CellTiter-Glo (MCF-10A [7]): 643 nM | EC50, CellTiter-Glo (MDA-MB-231 [8]): 382 nM | EC50, CellTiter-Glo (MDA-MB-436 [9]): 265 nM | EC50, CellTiter-Glo (MDA-MB-453): > 1000 nM | EC50, CellTiter-Glo (MFM-223 [10]): 31.8 nM | EC50, CellTiter-Blue viability (CAL-51 [11]): 869 nM | EC50, CellTiter-Blue viability (HDQ-P1 [12]): 307 nM | EC50, CellTiter-Blue viability (BT-549 [13]): 893 nM | EC50, CellTiter-Blue viability (HCC1599 [14]): 217 nM | EC50, CellTiter-Blue viability (Hs578T [15]): > 1000 nM | EC50, CellTiter-Blue viability (MFM-223 [16]): 8.43 nM | EC50, CellTox Green (CAL-120 [17]): 482 nM | EC50, CellTox Green (HCC1937 [18]): 387 nM | EC50, CellTox Green (MDA-MB-231 [19]): 231 nM

Cn1c(Nc2ccc(C(F)(F)F)cc2)nc2cc(Oc3ccnc(-c4ncc(C(F)(F)F)[nH]4)c3)ccc21 [RAF265]
EC50, CellTiter-Glo (BT-549 [1]): 377 nM | EC50, CellTiter-Glo (CAL-120 [2]): 97.2 nM | EC50, CellTiter-Glo (CAL-85-1 [3]): 827 nM | EC50, CellTiter-Glo (DU-4475 [4]): 193 nM | EC50, CellTiter-Glo (HCC1937 [5]): 163 nM | EC50, CellTiter-Glo (HDQ-P1 [6]): 108 nM | EC50, CellTiter-Glo (Hs578T [20]): 72.4 nM | EC50, CellTiter-Glo (MDA-MB-436 [9]): 137 nM | EC50, CellTiter-Glo (MFM-223 [10]): 291 nM | EC50, CellTiter-Blue viability (CAL-51 [11]): 915 nM | EC50, CellTiter-Blue viability (DU-4475 [21]): 328 nM | EC50, CellTiter-Blue viability (HDQ-P1 [12]): 82.3 nM | EC50, CellTiter-Blue viability (BT-549 [13]): 4.14 nM | EC50, CellTiter-Blue viability (HCC1143 [22]): 1.43 nM | EC50, CellTiter-Blue viability (Hs578T [15]): 196 nM | EC50, CellTiter-Blue viability (MDA-MB-436 [23]): 30 nM | EC50, CellTiter-Blue viability (MFM-223 [16]): 673 nM | EC50, CellTox Green (BT-549 [24]): 581 nM | EC50, CellTox Green (CAL-85-1 [25]): 139 nM | EC50, CellTox Green (MFM-223 [26]): 600 nM

CCC1=C[C@@H]2CN(C1)Cc1c([nH]c3ccccc13)[C@@](C(=O)OC)(c1cc3c(cc1OC)N(C)[C@H]1[C@@](O)(C(=O)OC)[C@H](OC(C)=O)[C@]4(CC)C=CCN5CC[C@]31[C@@H]54)C2 [Vinorelbine]
EC50, CellTiter-Glo (BT-549 [1]): 26.3 nM | EC50, CellTiter-Glo (CAL-120 [2]): 24.1 nM | EC50, CellTiter-Glo (CAL-148 [27]): 35.7 nM | EC50, CellTiter-Glo (CAL-85-1 [3]): 24.5 nM | EC50, CellTiter-Glo (DU-4475 [4]): 1510 nM | EC50, CellTiter-Glo (HCC1143 [28]): 23.5 nM | EC50, CellTiter-Glo (HCC1599 [29]): 206 nM | EC50, CellTiter-Glo (HCC1937 [5]): 29.5 nM | EC50, CellTiter-Glo (HDQ-P1 [6]): 40.6 nM | EC50, CellTiter-Glo (Hs578T [20]): 69.7 nM | EC50, CellTiter-Glo (MCF-10A [7]): 27.3 nM | EC50, CellTiter-Glo (MDA-MB-231 [8]): 119 nM | EC50, CellTiter-Glo (MDA-MB-436 [9]): 42.9 nM | EC50, CellTiter-Glo (MDA-MB-453): 12.6 nM | EC50, CellTiter-Glo (MFM-223 [10]): 76.8 nM | EC50, CellTiter-Glo (SK-BR-3 [30]): 3.1 nM | EC50, CellTiter-Blue viability (CAL-51 [11]): 116 nM | EC50, CellTiter-Blue viability (CAL-85-1 [31]): 23.1 nM | EC50, CellTiter-Blue viability (DU-4475 [21]): 304 nM | EC50, CellTiter-Blue viability (HDQ-P1 [12]): 74 nM | EC50, CellTiter-Blue viability (BT-474 [32]): 33.5 nM | EC50, CellTiter-Blue viability (BT-549 [13]): 37.8 nM | EC50, CellTiter-Blue viability (HCC1143 [22]): 41.8 nM | EC50, CellTiter-Blue viability (HCC1599 [14]): 176 nM | EC50, CellTiter-Blue viability (Hs578T [15]): 39.8 nM | EC50, CellTiter-Blue viability (MDA-MB-436 [23]): 72.8 nM | EC50, CellTiter-Blue viability (MDA-MB-468 [33]): 33.5 nM | EC50, CellTiter-Blue viability (MFM-223 [16]): 44.4 nM | EC50, CellTiter-Blue viability (SK-BR-3 [34]): 30.9 nM | EC50, CellTox Green (BT-474 [35]): 85.9 nM | EC50, CellTox Green (BT-549 [24]): 492 nM | EC50, CellTox Green (CAL-120 [17]): 1500 nM | EC50, CellTox Green (CAL-148 [36]): 42.5 nM | EC50, CellTox Green (CAL-51 [37]): 45.2 nM | EC50, CellTox Green (CAL-85-1 [25]): 23.2 nM | EC50, CellTox Green (HCC1599 [38]): 356 nM | EC50, CellTox Green (Hs578T [39]): 95.4 nM | EC50, CellTox Green (MCF-10A [40]): 13.7 nM | EC50, CellTox Green (MDA-MB-231 [19]): 263 nM | EC50, CellTox Green (MDA-MB-436 [41]): 273 nM | EC50, CellTox Green (MDA-MB-468 [42]): 3510 nM | EC50, CellTox Green (MFM-223 [26]): 5.52 nM
